We go through one cell line from the supplement of paper PMC10307832.

Holding throughout (test): relative viability (nuclei count vs DMSO), 5 days (fraction); higher = more cells survive
Compound in the test “Daporinad + Foretinib”: O=C(/C=C/c1cccnc1)NCCCCC1CCN(C(=O)c2ccccc2)CC1 [Daporinad] + COc1cc2c(Oc3ccc(NC(=O)C4(C(=O)Nc5ccc(F)cc5)CC4)cc3F)ccnc2cc1OCCCN1CCOCC1 [Foretinib] (partner 0.25 µM)
In outline:
(§1)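 Nuclei were stained with Hoechst during a one-step fixation (final 0.05% Triton X-100, 1% formaldehyde, 1 ug/ml Hoechst) carried out 5 days after dosing, then counted on 4× images. The cells, lung cancer lines in 1536-well plates, had been dosed by pin tool the day after seeding with one drug alone or a fixed anchor-drug dose plus five library-drug doses (not always all listed) in √10 steps. Relative viability is the nuclei count in treated wells divided by that in vehicle wells, and each value is the median of duplicate plates.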

Compound in the test “R406 + Pictilisib”: COc1cc(Nc2ncc(F)c(Nc3ccc4c(n3)NC(=O)C(C)(C)O4)n2)cc(OC)c1OC [R406] + CS(=O)(=O)N1CCN(Cc2cc3nc(-c4cccc5[nH]ncc45)nc(N4CCOCC4)c3s2)CC1 [Pictilisib] (partner 1 µM)
In outline: as §1

Compound in the test “Daporinad + Vorinostat”: O=C(/C=C/c1cccnc1)NCCCCC1CCN(C(=O)c2ccccc2)CC1 [Daporinad] + O=C(CCCCCCC(=O)Nc1ccccc1)NO [Vorinostat] (partner 1 µM)
In outline: as §1

Compound in the test “Daporinad + Lapatinib”: O=C(/C=C/c1cccnc1)NCCCCC1CCN(C(=O)c2ccccc2)CC1 [Daporinad] + CS(=O)(=O)CCNCc1ccc(-c2ccc3ncnc(Nc4ccc(OCc5cccc(F)c5)c(Cl)c4)c3c2)o1 [Lapatinib] (partner 2 µM)
The method in brief:
as §1

Turning to UMC-11, the relative viability with Daporinad + Foretinib (first compound 0.0005 µM) was 1.11; in the test with Daporinad + Foretinib (first compound 0.001581 µM) it was 1.05; in the test with Daporinad + Foretinib (first compound 0.005 µM), 1.34; in the test with Daporinad + Foretinib (first compound 0.01581 µM), 1.22; with R406 + Pictilisib (first compound 0.08 µM), 0.864; with R406 + Pictilisib (first compound 0.253 µM) it was 1.07. Besides, the relative viability was 0.863 with R406 + Pictilisib (first compound 0.8 µM); 0.568 with R406 + Pictilisib (first compound 2.53 µM); 0.369 in the test with R406 + Pictilisib (first compound 8 µM); 0.319 with Daporinad + Vorinostat (first compound 0.0005 µM); 0.384 with Daporinad + Vorinostat (first compound 0.001581 µM); 0.426 in the test with Daporinad + Vorinostat (first compound 0.005 µM). The relative viability in the test with Daporinad + Vorinostat (first compound 0.01581 µM) is 0.413; with Daporinad + Lapatinib (first compound 0.0005 µM), 0.995; with Daporinad + Lapatinib (first compound 0.001581 µM), 1.06; with Daporinad + Lapatinib (first compound 0.005 µM), 1.08; with Daporinad + Lapatinib (first compound 0.01581 µM), 1.24.
